Experimental data: patent publication US20260102451A1, “RUMINANT METHANE PRODUCTION INHIBITOR” (SDS BIOTECH K.K., priority 2022, published 2026)

Tests used:
Type in all cases: cell-based, Holstein milking cows
[1] = system: rumen fluid culture; assay: Methane production measurement system using rumen culture (Example 1); conditions: for methane amount (mean ± SD): 39° C., 17 hours
Experimental: Cashew nut shell liquid (CNSL) cold-pressed and extracted from cashew nut shells was obtained. For culture inoculum, rumen fluids (filtrates through quadruple gauzes) collected orally from Holstein milking cows 90 days or longer after calving were used. 4 mL of the rumen fluid and 6 mL of artificial saliva (McDougal's artificial saliva) were added, and the mixture was used for culturing. […] Similarly, DL-malic acid and fumaric acid were dissolved in ethanol and added such that they had desired concentrations in the solution. To equalize the effect of ethanol, only ethanol was added to a no-addition (control) area. Thereafter, the resulting products were left for several hours to vaporize ethanol, to which 50 mg of corn starch, 75 mg of concentrate feed powder, and 75 mg of timothy hay powder were added as culture substrates. […] To these test tubes, a total of 10 ml of diluted rumen fluid and artificial saliva in the above mixture ratio was added, and the tubes were incubated anaerobically in an incubator (39° C., 17 hours) with butyl rubber caps and plastic screw caps provided while nitrogen gas was blown into the head space. Each culturing was performed in triplicate. The concentrations of methane and acetic acid in volatile fatty acids were both analyzed by FID gas chromatography.

[2] = system: rumen fluid culture; assay: Methane production measurement system using rumen culture (Example 3); conditions: for methane amount (mean ± SD): 39° C., 17 hours; for methane amount % reduction vs cont: ^ = increase
Experimental: Cashew nut shell liquid (CNSL) cold-pressed and extracted from cashew nut shells was obtained. For culture inoculum, rumen fluids (filtrates through quadruple gauzes) collected orally from Holstein milking cows 90 days or longer after calving were used. 4 mL of the rumen fluid and 6 mL of artificial saliva (McDougal's artificial saliva) were added and the mixture was used for culturing. […] CNSL was dissolved in ethanol and added to a Hungate tube such that it had any concentration in the solution. […] To equalize the effect of ethanol, only ethanol was added to a no-addition (control) area. […] To these test tubes, a total of 10 mL of diluted rumen fluid and artificial saliva in the above mixture ratio was added, and the tubes were incubated anaerobically in an incubator (39° C., 17 hours) with butyl rubber caps and plastic screw caps provided while nitrogen gas was blown into the head space. Each culturing was performed in triplicate. The concentrations of methane and acetic acid in volatile fatty acids were both analyzed by FID gas chromatography.

[3] = system: rumen fluid culture; assay: Methane production measurement system using rumen culture (Example 2); conditions: for methane amount (mean ± SD): 39° C., 17 hours
Experimental: Cashew nut shell liquid (CNSL) cold-pressed and extracted from cashew nut shells was obtained. For culture inoculum, rumen fluids (filtrates through quadruple gauzes) collected orally from Holstein milking cows 90 days or longer after calving were used. 4 mL of the rumen fluid and 6 mL of artificial saliva (McDougal's artificial saliva) were added and the mixture was used for culturing. […] CNSL was dissolved in ethanol and added to a Hungate tube such that it had any concentration in the solution. […] To equalize the effect of ethanol, only ethanol was added to a no-addition (control) area. Thereafter, the resulting products were left for several hours to vaporize ethanol, to which 50 mg of corn starch, 75 mg of concentrate feed powder, and 75 mg of timothy hay powder were added as culture substrates. To these test tubes, a total of 10 ml of diluted rumen fluid and artificial saliva in the above mixture ratio was added, and the tubes were incubated anaerobically in an incubator (39° C., 17 hours) with butyl rubber caps and plastic screw caps provided while nitrogen gas was blown into the head space. Each culturing was performed in triplicate. The concentrations of methane and acetic acid in volatile fatty acids were both analyzed by FID gas chromatography.

[4] = 1000 mg/L alone, ▴ = reduction, ^ = increase

SMILES | acetate amount % vs cont ([1]; 500 mg/L alone) [%] | acetate amount (mean ± SD) ([1]; 500 mg/L alone) [g/L] | methane amount (mean ± SD) ([1]; 500 mg/L alone) [mL/tube] | acetate amount % vs cont ([2]; 500 mg/L alone) [%] | acetate amount (mean ± SD) ([2]; 500 mg/L alone) [g/L] | methane amount (mean ± SD) ([2]; 500 mg/L alone) [mL/tube] | acetate amount % vs cont ([2]; 1000 mg/L alone) [%] | acetate amount (mean ± SD) ([2]; 1000 mg/L alone) [g/L] | methane amount (mean ± SD) ([2]; 1000 mg/L alone) [mL/tube] | acetate amount % vs cont ([2]; 2000 mg/L alone) [%] | acetate amount (mean ± SD) ([2]; 2000 mg/L alone) [g/L] | methane amount (mean ± SD) ([2]; 2000 mg/L alone) [mL/tube] | methane amount % reduction vs cont ([2]; 2000 mg/L alone) | acetate amount % vs cont ([3]; 500 mg/L alone) [%] | acetate amount (mean ± SD) ([3]; 500 mg/L alone) [g/L] | methane amount (mean ± SD) ([3]; 500 mg/L alone) [mL/tube] | acetate amount % vs cont ([3]; 1000 mg/L alone) [%] | acetate amount (mean ± SD) ([3]; 1000 mg/L alone) [g/L] | methane amount (mean ± SD) ([3]; 1000 mg/L alone) [mL/tube] | also measured
O=C(O)CC(O)C(=O)O (racemic) [DL-malic acid] | 123 | 4.18 ± 0.11 | 6.22 ± 0.93 | 114 | 4.18 ± 0.07 | 6.13 ± 0.92 | 102 | 3.76 ± 0.27 | 6.13 ± 0.00 | 105 | 3.85 ± 0.38 | 5.95 ± 0.70 | ▴3% |  |  |  |  |  |  | acetate amount % vs cont ([1]; 1000 mg/L alone): 111%; acetate amount (mean ± SD) ([1]; 1000 mg/L alone): 3.76 ± 0.11 g/L; methane amount (mean ± SD) ([1]; 1000 mg/L alone): 5.47 ± 0.01 mL/tube; methane amount % reduction vs cont [1, 4]: ▴0%; improvement in the methane reduction rate ([1]; CNSL and garlic powder in combination, 500 to 1,000 mg/L DL-malic acid alone, 100 to 200 mg/L garlic powder): did not show significant improvement
O=C(O)CC(O)(CC(=O)O)C(=O)O [citric acid] |  |  |  | 99 | 3.64 ± 0.70 | 6.53 ± 0.43 | 102 | 3.76 ± 1.10 | 6.41 ± 1.49 | 128 | 4.71 ± 0.15 | 5.45 ± 2.09 | ▴11% | 115 | 4.25 ± 0.16 | 5.12 ± 0.67 | 119 | 4.42 ± 0.14 | 3.77 ± 1.64 | methane amount % reduction vs cont [3, 4]: ▴21%
O=C(O)/C=C/C(=O)O [fumaric acid] | 114 | 3.86 ± 0.12 | 5.94 ± 0.01 |  |  |  |  |  |  |  |  |  |  |  |  |  |  |  |  | 
CC(=O)C(=O)O [pyruvic acid] |  |  |  |  |  |  |  |  |  |  |  |  |  | 109 | 4.04 ± 0.31 | 5.58 ± 1.26 | 118 | 4.36 ± 0.02 | 5.39 ± 0.04 | 
O=C(O)CCC(=O)O [succinic acid] |  |  |  |  |  |  |  |  |  |  |  |  |  | 115 | 4.26 ± 0.42 | 5.28 ± 1.76 | 106 | 3.91 ± 0.58 | 6.24 ± 0.83 | 
